Experimental data taken from US10655126B2, “Methods and compositions to treat drug-induced diseases and conditions” (University of Vermont and State Agricultural College, priority 2015, dated 2020).

What was measured:
[1] = cited from earlier work
[2] = test system: MCJ; test: MCJ knockdown in human MCF7 cells, Western blot; assay type: cell-based; settings: MCF7 cells transfected with h-siMCJ 5 nM, harvested after 30 h; FIG. 10
Description: (§1) A human siMCJ has been tested in a human MCF7 cell line in vitro. […] Transfection methods included transecting human MCF7 cells transfected with h-siMCJ (5 nM) and after 30 h cells were harvested and MCJ expression was examined by Western blot analysis using an anti-human MCJ antibody. CoxIV (mitochondrial protein) and GAPDH were also examined as controls.

[3] = test system: CoxIV; test: CoxIV level in human MCF7 cells, Western blot (control protein); assay type: cell-based; settings: MCF7 cells transfected with h-siMCJ 5 nM, harvested after 30 h; FIG. 10
Description: as §1

[4] = test system: MCJ; test: MCJ expression in liver in vivo by Western blot; parameters: species or system mouse
Description: Analysis for MCJ expression in liver by Western blot analysis was performed as previously described (REF) using a specific anti-MCJ antibody. Expression of GAPDH was used as a control. Band intensities were quantified using the ImageJ software and normalized to the control (GAPDH).
(§2) siMCJ oligos (double strand RNA oligos, see for example, SEQ ID NO: 22) containing the designed sequence were synthesized for in vivo studies (Ambion invivo siRNA). As a delivery system Invivofectamine 3.0 (Life Technology) was used because it is claimed to obtain high efficiency of in vivo delivery of siRNA into hepatocytes. Following the recommendation of the manufacturer, 1.7 mg/Kg was used in combination with invivofectamine 3.0. Preparation of siRNA with the Invivofectamine was performed as recommended by the manufacturer. Mice were administered with a single i.v. dose of siMCJ/invivofectamine in 150 μl.

[5] = test system: wild-type mice; test: Acetaminophen (APAP) mouse model of drug-induced liver injury: liver histology and serum ALT; assay type: in vivo
Description: Alanine aminotransferase (ALT) aspartate aminotransferase (AST) and bilirubin were determined in serum samples using the Selectra Junior SpinLab 100 analyzer (Vital Scientific) and the SpinReact reagents according to manufacturer's protocols.
Paraffin-embedded liver samples were sectioned, dewaxed, and hydrated. Immunohistochemistry (IHC) was performed using an anti-MCJ antibody and nuclei were counter-stained with hematoxylin. Quantification of staining area of each sample was analyzed using the Frida software and represented as the % of the stained area relative to the total area (power field). Ten fields per sample were pictured and analyzed. For liver histology, liver sections from paraffin-embedded tissue were stained with hematoxylin and eoxin (H&E staining). Frida software was used for quantification.
as §2

[6] = test system: wild-type hepatocytes; test: Protection of wild-type hepatocytes from acetaminophen toxic injury by siRNA for MCJ; assay type: cell-based

Question: Which “hepatoprotective effect when given after 8 h” value ([1]; more than 8 h after uptake of acetaminophen) does the source give for `CC(=O)N[C@@H](CS)C(=O)O` [NAC, N-acetylcysteine] here?
Answer: minimal to known

Question: And the “time after uptake of acetaminophen within which administration has a hepatoprotective effect” value ([1]; patients with acute hepatic failure due to overdose of acetaminophen)?
Answer: ≤ 8 h

Question: Which MCJ protein expression [2] does the source give for “h-siMCJ: human siRNA sequence gaagatttcaactectagat (as printed), double stranded RNA oligo (GAAGATTTCAACTCCTAGCTT; listed as DNA, chemistry not given here; listed as Homo sapiens)” here?
Answer: sufficient to knockdown MCJ protein expression

Question: What about the “levels of CoxIV (another mitochondrial protein)” value [3] of the same compound?
Answer: not affecting the levels of CoxIV

Question: Which “levels of endogenous MCJ in the liver” value ([4]; 24 h after single i.v. dose of siMCJ 1.7 mg/Kg with invivofectamine, wild-type mice, FIG. 7) does the source give for “siMCJ: double strand RNA oligos (see for example SEQ ID NO: 22, mouse siRNA sequence gcgagaggctagtcttatt), given i.v. with Invivofectamine 3.0 (GCGAGAGGCTAGTCTTATT; Invivofectamine 3.0 formulation, further chemistry not given here; listed as Mus musculus)” here?
Answer: almost undetectable

Question: And the “restoration of MCJ levels in liver” value ([4]; after 9 days of administration, single i.v. dose of siMCJ, FIG. 7)?
Answer: not a full restoration of MCJ levels

Question: And the “levels of MCJ in the liver of APAP-mice” value ([4]; siMCJ i.v. 20 h before acetaminophen 360 mg/Kg i.p., harvested 24 h after acetaminophen, relative to APAP-mice without siMCJ, FIG. 8A)?
Answer: markedly reduced

Question: What about the “levels of MCJ in the liver” value ([4]; siMCJ i.v. 24 h after acetaminophen 360 mg/Kg i.p., harvested 48 h after acetaminophen, FIG. 9A) of the same compound?
Answer: almost undetectable

Question: And the “time for which levels of MCJ in liver remained very low” value ([4]; single i.v. dose of siMCJ 1.7 mg/Kg with invivofectamine, FIG. 7)?
Answer: at least 7 days

Question: And the “areas of tissue damage in liver sections (H&E histology)” value ([5]; siMCJ i.v. 20 h before acetaminophen 360 mg/Kg i.p., harvested 24 h after acetaminophen, FIG. 8B)?
Answer: almost not detected

Question: And the “quantification of the damage area in the livers” value ([5]; siMCJ i.v. 20 h before acetaminophen, n=5, p<0.05, FIG. 8C)?
Answer: protective effect

Question: And the “levels of ALT in serum” value ([5]; siMCJ i.v. 24 h after acetaminophen 360 mg/Kg i.p., harvested 48 h after acetaminophen, p<0.01 vs control mice, FIG. 9B)?
Answer: drastically lower

Question: What about the “protection from toxic injury caused by acetaminophen” value [6] of the same compound?
Answer: protected wild-type hepatocytes from the development of toxic injury
